# Reference: BindingDB's records for doi:10.1016/j.ejmech.2016.05.049 (University of Naples Federico Ii, 2016)
# Residues, ends and D or L forms follow the SMILES beside them. *: point of attachment. Cbz = O=C(OCc1ccccc1)*
# Assay: Competitive inhibition of post-glutamyl peptide hydrolyzing activity of human 20S proteasome using Cbz-Leu-Leu-Glu-AMC as substrate measured for 10 mins by fluorescence assay
row,Ki,SMILES
1,8.59 µM,CC(C)CC(NC(=O)C(CO)NC(=O)OCc1ccccc1)C(=O)NC(Cc1ccc(O)cc1)C(N)=O (stereo not drawn) (Cbz-Ser-Leu-Tyr-NH2; configuration not given here)
2,31.3 µM,COC(=O)[C@H](Cc1ccc(O)cc1)NC(=O)[C@H](CC(C)C)NC(=O)[C@H](CO)NC(=O)OCc1ccccc1 (Cbz-Ser-Leu-Tyr-OMe)
